Measurements published in patent US20220204479A1, “PYRIMIDINE COMPOUND AND PREPARATION METHOD THEREFOR” (Wuhan Humanwell Innovative Drug Research And Development …, priority 2019, published 2022).
Converted amounts (≈) assume the structure as drawn. Like-named read-outs stand apart in the source and are kept apart here.

Columns and labels:
[1] = Pharmacokinetic test in rats; type: in vivo; conditions: male SD rats, oral gavage 10 mg/kg
Description: (§1) For the pharmacokinetic test of rats, 3 male SD rats (180-240 g) were used, and fasted overnight. The rats were orally administered by gavage (10 mg/kg). […] The blood samples were centrifuged at 8,000 rpm at 4° C. for 6 min, and plasma was collected and stored at −20° C. The plasma at each time point was taken and added with an acetonitrile solution containing internal standard in 3 to 5 times the amount, vortexed and mixed for 1 min, and centrifuged at 13,000 rpm at 4° C. for 10 min. The supernatant was collected, added with water in 3 times the amount, and mixed. An appropriate amount of the mixture was taken for LC-MS/MS analysis. The main pharmacokinetic parameters were analyzed using WinNonlin 7.0 software with non-compartmental model.

[2] = Pharmacokinetic test in mice; type: in vivo; conditions: mouse, plasma; male CD-1 mice, oral gavage 10 mg/kg
Description: as §1, with “mice,” for “rats, 3”, “CD-1 mice (20 g to 25” for “SD rats (180-240”, “mice” for “rats”

[3] = biological target: T1, ATX enzyme in rat plasma (Rattus norvegicus, UniProt Q64610); test: Inhibition of activity of ATX enzyme in rat plasma (LPA18:2 formation, LC-MSMS); type: biochemical; conditions: for inhibitory activity on ATX enzyme in rat plasma compared with control compounds 1 and 2: comparison in words
T1 construct: Whole blood was collected from rats and anticoagulated with heparin; from tissue; host or cells: rat plasma (heparin)
Description: Whole blood was collected from rats and anticoagulated with heparin. The blood collection tubes were centrifuged at 3,000 rpm for 15 min, and the plasma was placed on ice for use.
The compound was serially diluted with DMSO: 30% ACN=1:19 according to the conventional concentration requirements, and then placed on ice. 147 μL of plasma, which was placed on ice, was added to a 96-well plate, and then 3 μL of each of the gradient solutions of the compound (finally 1[…] DMSO) was added. A group containing none of the compounds was set as the positive group. The 96-well plate was mixed uniformly, and incubated at 37° C. for 3 h. In addition, a blank group was also provided. At the beginning of the incubation, the plasma of blank group was added to with excessive acetonitrile containing the internal standard LPA17: 0 to precipitate the plasma protein, vortexed to mix, and stored at 4° C. The blank group was provided to determine the baseline concentration of endogenous LPA.
A peak area of LPA18: 2 and a peak area of internal standard LPA17: 0 were detected using LC-MSMS mass spectrometry.
(§2) A ratio of the peak area of LPA18: 2 to the peak area of internal standard LPA17: 0 was calculated, and a formation inhibition rate of LPA18: 2 was calculated according to the following formula:
(§3) Inhibition rate (%)=100−(compound group with different concentrations−blank group)/(positive group−blank group)*100
According to the inhibition rates of different concentrations of the compound, the IC50 value of the compound for inhibiting activity of ATX enzyme in rat plasma, was calculated.

[4] = Human liver microsome stability test; conditions: for Remaining percentage (%) of compound after incubation for 30 min: NADPH, 37° C.; for half-life at 1 µM: human
Description: The human liver microsome stability test was performed by incubating the compound and human liver microsomes in vitro for detection. First, the test compound was prepared into a 10 mM stock solution in DMSO solvent, and then the compound was diluted to 0.5 mM with acetonitrile. Human liver microsomes (Corning) were diluted with PBS and prepared as a microsome/buffer solution, which was used to dilute the 0.5 mM compound solution into a working solution. […] A deep-well multi-well plate was taken, 30 μL of the working solution and 15 μL of pre-warmed NADPH solution (6 mM) were sequentially added to each well to initiate a reaction, and the reaction was incubated at 37° C. […] After centrifugation, the supernatant was collected, and added with purified water in a ratio of 1:1 to perform LC-MS/MS detection. […] T1/2 was calculated by using Excel.

[5] = biological target: T2, ATX enzyme in human plasma (Homo sapiens, UniProt Q13822); test: Inhibition of activity of ATX enzyme in human plasma (LPA18:2 formation, LC-MSMS); type: biochemical; conditions: for inhibitory effect on ATX enzyme in human plasma compared with control compounds 1 and 2: comparison in words; for IC50: human plasma, 37° C., 3 h, LPA18:2 formation, read-out: IC50, inhibitory effect on activity of ATX enzyme in human plasma
T2 construct: Whole blood was collected from healthy volunteers and anticoagulated with heparin; from tissue; host or cells: human plasma (heparin) from healthy volunteers
Description: Whole blood was collected from healthy volunteers and anticoagulated with heparin. The blood collection tubes were centrifuged at 3,000 rpm for 10 min, and the plasma was taken and stored at −80° C. for use.
The compound was serially diluted with DMSO according to the conventional concentration requirements, then 3 μL of each of the diluted compound solutions was added to a 96-well plate, and 147 μL of PBS was added to each well containing 3 μL of the compound solution. After mixing homogenously, 50 μL of the mixture was taken out and added to a new 96-well plate. The human plasma was taken out from the −80° C. refrigerator and thawed through rapid shaking in a 37° C. water bath. 50 μL of the human plasma was taken and added to the 96-well plate containing 50 μL of the diluted compound (the final system contained 1% DMSO). The group without the compound was set as the positive group. The 96-well plate was shaken and mixed uniformly, and incubated at 37° C. for 3 h. A blank group was also provided, and the plasma of the blank group was stored at −80° C. The blank group is provided to determine the baseline concentration of endogenous LPA.
After the incubation was finished, the blank group was thawed on ice and transferred to an incubation plate. Excess acetonitrile containing the internal standard LPA17: 0 was added to the incubation plate to precipitate the plasma protein. After vortex centrifugation, the supernatant was taken and diluted, and a peak area of LPA18: 2 and a peak area of internal standard LPA17: 0 were detected using LC-MSMS mass spectrometry.
as §2, §3
According to the inhibition rates of different concentrations of the compound, the IC50 value of the compound for inhibiting activity of ATX enzyme in human plasma was calculated.

[6] = Pharmacokinetic test in canines; type: in vivo; conditions: dog, plasma; male beagle dogs, oral gavage 5 mg/kg
Description: as §1
For the pharmacokinetics test of canines, 3 male beagle dogs (8 to 10 kg) were used, and fasted overnight. The dogs were orally administered by gavage (5 mg/kg). The rest of the operation is the same as the pharmacokinetic test in rats.

[7] = biological target: T3, autotaxin (ATX) enzyme (Homo sapiens, UniProt Q13822); test: Autotaxin (ATX) enzyme activity inhibition test (Cayman Autotaxin Inhibitor Screening Assay Kit); type: biochemical; conditions: 37° C., 30 min, OD405, read-out: IC50, inhibitory effect on ATX enzyme activity
T3 construct: purchased Cayman 700580
Description: The inhibitory effects of the compounds on the autotaxin enzyme were detected using the Autotaxin Inhibitor Screening Assay Kit (Cayman, 700580). […] Subsequently, the 8 concentrations were diluted with Autotaxin Assay buffer (1×) provided in the kit into 19× compound working solutions (DMSO content was 1.9%). The Autotaxin Assay Reagent (10×) was taken out and diluted by 10 times with Autotaxin Assay Buffer (1×). The Autotaxin Substrate was taken out, dissolved by adding 1.2 mL of Autotaxin Assay Buffer (1×), mixed evenly and let stand by at room temperature. In a 96-well plate, 150 μL of Autotaxin Assay Buffer (1×), 10 μL of the prepared and diluted 19× compound working solution, 10 μL of Autotaxin Assay Reagent (1×), and 20 μL of the dissolved Autotaxin Substrate were added to each of the wells for each concentration, and homogenously mixed. The 96-well plate was shaken in a constant temperature shaker at 37° C. and incubated in the dark for 30 min, and then the plate was taken out and placed on a microplate reader to read OD405.

[8] = biological target: T4, hERG channels (CHO cell line stably expressing hERG) (Homo sapiens, UniProt Q12809); test: cell-based
Description: (§4) Full-automatic electrophysiological patch clamp QPatch was used to detect the inhibitory effect of compounds on hERG. Cells used in this test were CHO cell line transfected with cDNA of hERG and stably expressing hERG channels (provided by Sophion Bioscience, Denmark), and the cell passage number was P24. The cells were cultured in a medium containing the following components (all purchased from Invitrogen): Ham's F12 medium, inactivated fetal bovine serum (10% (v/v)), hygromycin B (100 μg/ml), and Geneticin (100 μg/ml). CHO hERG cells were grown in a petri dish containing the above-mentioned medium and cultured in an incubator at 37° C. and containing 5% CO2.
(§5) The test compound was prepared into a 10 mM stock solution in DMSO solvent, the compound was diluted to 3 mM, 1 mM, 0.3 mM, and 0.1 mM with DMSO, and then the compound was diluted to 30 μM, 10 μM, 3 μM, 1 μM, 0.3 μM and 0.1 μM with the extracellular fluid, so that except that the final concentration of DMSO in the 30 μM compound was 0.3%, the final concentration of DMSO in compound solutions of all other concentrations was 0.10%.
(§6) The CHO hERG cells, after being digested and resuspended, were added to the full-automatic QPatch system (Sophion, Denmark), and subjected to a test according to the following preset procedure.
(§7) After reaching the ruptured whole cell configuration state in the initial stage, the whole cell current was recorded at room temperature (about 25° C.) for at least 120 seconds in order to achieve stability. The stable cells were selected for the test. During the whole test, the cells were clamped at a voltage of −80 mV, the cell clamp voltage was depolarized to +20 mV to activate the hERG potassium channels, and after 2.5 seconds, the cell clamp voltage was at −50 mV to eliminate inactivation and generate outward tail current. The peak tail current was used as the value of the hERG current. The voltage mode described above was applied to the cells for electrophysiological test every 15 seconds. An intracellular liquid containing 0.1% dimethyl sulfoxide (solvent) was added to the cells to establish a baseline, and then the current was allowed to stabilize for 3 min. After the compound solution was added, the cells were kept in the test environment until the effect of the compound reached a steady state or until reaching 4 min. In the test experiments with different concentration gradients of the compound, the compound was added from low to high concentration to the clamped cells. After the compound test was finished, the cells were washed with the extracellular fluid until the current returned to a stable state. The test data was analyzed by Qpatch analysis software provided by Sophion, Excel, and Graphpad Prism, etc.

[9] = biological target: T4, hERG channels (CHO cell line stably expressing hERG); test: Inhibitory effect on hERG by full-automatic electrophysiological patch clamp QPatch; conditions: hERG IC50 (μM) divided by ATX enzyme IC50 (nM)
Description: as §4, §5, §6, §7

[10] = Thermodynamic solubility test; type: physicochemical; conditions: thermodynamic from solid
Description: The compound was accurately weighed, and the prepared phosphate buffer (pH 7.4), FeSSIF solution (pH 5.8) and FaSSGF solution (pH 1.6) were added to prepare a solution with a concentration of 4 mg/mL, which was shaken at 1,000 rpm for 1 hour, and then incubated overnight at room temperature. After the incubation, the solution was centrifuged at 12,000 rpm for 10 min to remove undissolved particles, and the supernatant was transferred to a new centrifuge tube. The supernatant was diluted appropriately, then added with an acetonitrile solution containing the internal standard, and quantified using a standard curve prepared with the same matrix.

[11] = rat plasma, 37° C., 3 h, LPA18:2 formation, read-out: IC50, inhibitory effect on activity of ATX enzyme in rat plasma

T4 sequence (Q12809 whole entry): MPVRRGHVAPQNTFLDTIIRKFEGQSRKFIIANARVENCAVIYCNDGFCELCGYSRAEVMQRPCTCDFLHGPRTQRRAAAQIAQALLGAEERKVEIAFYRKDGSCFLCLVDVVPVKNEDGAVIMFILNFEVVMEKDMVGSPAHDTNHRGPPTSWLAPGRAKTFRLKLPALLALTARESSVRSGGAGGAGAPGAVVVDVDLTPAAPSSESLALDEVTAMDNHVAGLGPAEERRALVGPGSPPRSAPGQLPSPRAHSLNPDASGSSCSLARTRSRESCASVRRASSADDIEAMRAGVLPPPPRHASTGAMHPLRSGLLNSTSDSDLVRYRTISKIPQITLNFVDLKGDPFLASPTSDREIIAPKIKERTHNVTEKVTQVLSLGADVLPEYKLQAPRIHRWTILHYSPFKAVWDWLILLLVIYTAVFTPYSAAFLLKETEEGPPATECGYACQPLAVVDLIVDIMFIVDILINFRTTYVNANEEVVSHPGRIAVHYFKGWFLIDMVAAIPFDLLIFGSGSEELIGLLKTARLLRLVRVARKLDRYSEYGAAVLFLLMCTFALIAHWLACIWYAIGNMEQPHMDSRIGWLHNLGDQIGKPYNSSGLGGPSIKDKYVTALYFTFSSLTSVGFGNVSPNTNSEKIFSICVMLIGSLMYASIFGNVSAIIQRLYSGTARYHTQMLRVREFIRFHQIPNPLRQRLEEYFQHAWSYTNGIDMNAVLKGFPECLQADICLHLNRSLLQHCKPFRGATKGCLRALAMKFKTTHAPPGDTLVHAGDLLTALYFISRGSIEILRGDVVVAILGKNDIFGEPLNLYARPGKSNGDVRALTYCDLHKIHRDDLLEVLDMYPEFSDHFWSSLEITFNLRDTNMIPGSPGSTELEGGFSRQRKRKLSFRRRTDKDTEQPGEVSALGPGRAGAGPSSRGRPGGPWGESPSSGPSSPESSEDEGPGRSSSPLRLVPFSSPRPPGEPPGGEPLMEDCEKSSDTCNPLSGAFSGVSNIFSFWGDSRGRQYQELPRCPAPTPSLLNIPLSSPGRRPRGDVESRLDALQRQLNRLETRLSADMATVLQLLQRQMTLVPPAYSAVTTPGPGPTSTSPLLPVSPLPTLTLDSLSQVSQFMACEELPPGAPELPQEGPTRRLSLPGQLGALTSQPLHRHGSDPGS

Structure (SMILES) | Tmax ([1]; Sprague-Dawley, rat, plasma) | AUC(0-t) [2] | Cmax [2] | Tmax [2] | inhibitory activity on ATX enzyme in rat plasma compared with control compounds 1 and 2 [3] | IC50 [3, 11] | Remaining percentage (%) of compound after incubation for 30 min ([4]; human liver microsomes) | inhibitory effect on ATX enzyme in human plasma compared with control compounds 1 and 2 [5] | IC50 [5] | AUC(0-t) [6] | Cmax [6] | Tmax [6] | IC50 [7] | IC50 [8] | hERG IC50/ATX IC50 [9] | half-life at 1 µM ([4]; microsomes) | further results
O=C(c1cnc(NC2Cc3ccccc3C2)nc1)N1CCC(COCc2cn[nH]n2)CC1 [Compound I-1, (4-(((2H-1,2,3-triazol-4-yl)methoxy)methyl)piperidin-1-yl)(2-((2,3-dihydro-1H-inden-2-yl)amino)pyrimidin-5-yl)methanone] | 30 min | 2390 ng·h/mL | 1860 ng/mL | 25.2 min | higher inhibitory activity on ATX enzyme in rat plasma than the control compounds 1 and 2 | 6.49 nM | 85.6% | higher inhibitory effect on ATX enzyme in human plasma than the control compounds 1 and 2 | 8.73 nM | 17600 ng·h/mL | 3670 ng/mL | 70.2 min | 2.05 nM | 7930 nM | 7.93/2.05 = 3.87 |  | AUC(0-t) ([1]; Sprague-Dawley, rat, plasma, read-out: AUC0-t): 5720 ng·h/mL; Cmax ([1]; Sprague-Dawley, rat, plasma, read-out: Cmax): 3180 ng/mL; half-life at 1 µM ([4]; human liver microsomes): 99 min
O=C(COCCc1cnn[nH]1)N1Cc2cnc(NC3Cc4ccccc4C3)nc2C1 [Control compound 1, reference compound] | 25.2 min | 2570 ng·h/mL | 1500 ng/mL | 15 min |  |  | 41.2% |  |  | 10100 ng·h/mL | 2390 ng/mL | 60 min |  | 6690 nM |  | 24.1 min | AUC(0-t) [1]: 4874 ng·h/mL; Cmax [1]: 2591 ng/mL; IC50 [3]: 13.6 nM; solubility ([10]; FaSSGF solution, fassgf or other biorelevant, FaSSGF pH 1.6, overnight at room temperature, read-out: Solubility, FaSSGF (pH 1.6)): 66.5 µg/mL (≈ 164 µM); solubility ([10]; FeSSIF solution, FeSSIF pH 5.8, overnight at room temperature, read-out: Solubility, FeSSIF (pH 5.8)): 18.3 µg/mL (≈ 45.1 µM); solubility ([10]; phosphate buffer (PBS), aqueous buffer, PBS pH 7.4, overnight at room temperature, read-out: Solubility, PBS (pH 7.4)): 6.3 µg/mL (≈ 15.5 µM)
O=C(c1cnc(NC2Cc3ccccc3C2)nc1)N1CC2(CC(OCc3c[nH]nn3)C2)C1 [Compound I-9, (6-((1H-1,2,3-triazol-4-yl)methoxy)-2-azaspiro[3.3]heptan-2-yl)(2-((2,3-dihydro-1H-inden-2-yl)amino)pyrimidin-5-yl)methanone] |  | 4590 ng·h/mL | 3870 ng/mL | 19.8 min | higher inhibitory activity on ATX enzyme in rat plasma than the control compounds 1 and 2 | 2.83 nM | 95.5% | higher inhibitory effect on ATX enzyme in human plasma than the control compounds 1 and 2 | 2.74 nM | 9410 ng·h/mL | 2090 ng/mL | 70.2 min | 1.43 nM | 13400 nM | 13.4/1.43 = 9.37 | 242 min | Tmax ([1]; Sprague-Dawley, rat, in vivo): 25.2 min; AUC(0-t) ([1]; Sprague-Dawley, rat, in vivo, read-out: AUC0-t): 1410 ng·h/mL; Cmax ([1]; Sprague-Dawley, rat, in vivo, read-out: Cmax): 973 ng/mL
